Experimental data published in US20120315342A1, “EPITHELIAL CELL-CELL ADHESION ENHANCER, AND AMELIORATING, THERAPEUTIC OR PROPHYLACTIC AGENT FOR ALLERGIC DISEASES USING SAME” (Tokai Medical Test Laboratory Co., priority 2010, published 2012).

What was measured:
Format in all cases: cell-based
Caco-2 cells [1] = experiment: Prior administration of 1-kestose, inhibition of TEER decrease caused by extracellular calcium deficiency (Example 4); conditions: for TEER right before exchanging the medium for calcium-free DMEM, versus negative and positive control groups: 1 wt. %; for decrease in TEER after exchange for calcium-free DMEM and elimination of 1-kestose, versus negative control group: 1 wt. % prior administration
Text: (§1) The oligosaccharide containing 1-kestose used in the present Example 1 is composed of 98 wt. % 1-kestose, 1 wt. % nystose, and 1 wt. % sucrose. Namely, it is an oligosaccharide containing 1-kestose at a purity of 98 wt. %. Also, as the index for the cell-cell adhesion strength in cultured cells, transepithelial electrical resistance (TEER) was used. This measurement method utilizes a property that the stronger the epithelial cell-cell adhesion, the bigger the electrical resistance value between the upper layer and the lower layer of the cell culture medium, and this technique is also employed for a model experiment using epithelial cells and the like.
(§2) Caco-2 cells, which are the epithelial colorectal carcinoma cells, were subcultured in a 10% FES-containing DMEM medium (GIBCO), and the 48th generation of cultured cells were cryopreserved and used for the following experiments. The Caco-2 cells were seeded in the upper layer of a Transwell (Corning Life Sciences) and cultured in an incubator in 5% CO2 at 37° C. in the presence of a 10% FBS-containing DMEM medium. Cell culture was performed until the electrical resistance between the upper layer and the lower layer of the Transwell (TEER) reached 400 to 500 Ω·cm^2.
The Caco-2 cells were cultured until TEER of the Transwell reached 400 to 500 Ω·cm^2. The 10% FES-containing DMEM medium was exchanged for a […] DMEM medium, and an oligosaccharide containing 1-kestose was added at a concentration of 1 wt. % to the upper layer. The medium was exchanged for a calcium-free medium one hour or six hours later, and TEER was chronologically measured three times, every half hour (1-hour calcium (+) 1% kestose group, 6-hour calcium (+) 1% kestose group, n=3). As the control group, a group in which culture was performed for one hour or six hours in a calcium- containing DMEM medium, and then in a calcium-free DMEM medium (1-hour calcium (+) negative control group, 6-hour calcium (+) negative control group, n=3) and a group of cells that were cultured only in a calcium-containing DMEM medium (positive control group, n=3) were prepared, and chronological changes in TEER were compared.

Caco-2 cells [2] = experiment: Recovery of TEER after decreased epithelial cell-cell adhesion caused by extracellular calcium deficiency (Examples 1-3); conditions: for recovery of TEER in comparison with the negative control group / recovery-promoting effect on TEER in comparison with the positive control group: Example 1, FIG. 1, 1 wt. % in calcium-containing DMEM after 2 h calcium-free DMEM, n=3
Text: as §1, §2
The Caco-2 cells that were cultured until TEER of the Transwell reached 400 to 500 Ω·cm^2 were cultured for two hours after exchanging the 10% FES-containing DMEM medium for a calcium-free DMEM medium. Subsequently, a calcium-containing DMEM medium to which an oligosaccharide containing 1-kestose, or nystose, was added at a concentration of 1 wt. % was added to the upper layer. Then, TEER was chronologically measured every half hour, and the cells were cultured up to 22 hours and then TEER was measured (1% kestose group, 1% nystose group, n=3). As the control group, a group of cells that were cultured only in a calcium-free DMEM medium (negative control group, n=3) and a group in which culture was performed for two hours in a calcium-free DMEM medium, and then the medium was only exchanged for a calcium-containing DMEM medium (positive control group, n=3) were prepared, and chronological changes in TEER were compared.
The Caco-2 cells that were cultured until TEER of the Transwell reached 400 to 500 Ω·cm^2 were cultured for two hours after exchanging the 10% FBS-containing DMEM medium for a calcium-free DMEM medium. Subsequently, a calcium-containing DMEM medium to which an oligosaccharide containing 1-kestose was added at a concentration of 1 wt. % was added to the upper layer. Then, TEER was chronologically measured every half hour, and the cells were cultured up to three hours and then TEER was measured (calcium (+) 1% kestose group, n=3). Also, a group in which an oligosaccharide containing 1-kestose was added at a concentration of 1 wt. % to the calcium-free DMEM medium, while the medium was not exchanged for a calcium-containing DMEM medium, and cell culture was performed up to three hours and then TEER was measured was prepared (calcium (−) 1% kestose group, n=3). As the control group, a group of cells that were cultured only in a calcium-free DMEM medium (negative control group, n=3) and a group in which culture was performed for two hours in a calcium-free DMEM medium, and then the medium was only exchanged for a calcium-containing DMEM medium (positive control group, n=3) were prepared, and chronological changes in TEER were compared.
The Caco-2 cells that were cultured until TEER of the Transwell reached 400 to 500 Ω·cm^2 were cultured for two hours after exchanging the 10% FBS-containing DMEM medium for a calcium-free DMEM medium. Subsequently, a calcium-containing DMEM medium to which an oligosaccharide containing 1-kestose was added at a concentration of 1 wt. % or 0.1 wt. % was added to the upper layer. Then, TEER was chronologically measured every half hour, and the cells were cultured up to 3.5 hours and then TEER was measured (1% kestose group, 0.1% kestose group, n=3). […]

Caco-2 cells [3] = experiment: Inhibition of TEER decrease caused by inflammatory cytokine IL-1β (Example 6)
Text: as §1
Caco-2 cells, which are the epithelial colorectal carcinoma cells, were subcultured in a 10% FES-containing DMEM medium (GIBCO), and the 48th generation of cultured cells were cryopreserved and used for the following experiments. […]
To the upper layer of a DMEM medium in which the Caco-2 cells were cultured until TEER of the Transwell reached 400 to 500 Ω·cm^2, an oligosaccharide containing 1-kestose was added at a concentration of 1 wt. %. […] TEER was measured 48 hours later and a ratio of the value thus measured to the initial measured value of TEER was calculated (1% kestose (+), IL-1β(+) group, n=3). […]

Caco-2 cells [4] = experiment: Lucifer Yellow permeation from upper to lower layer after extracellular calcium deficiency (Example 5); conditions: Example 5, FIG. 6, 3 h; for residual concentration of Lucifer Yellow in the lower layer compared to the negative control group: 1 wt. % in calcium-containing medium, Lucifer Yellow in upper layer
Description: as §2
The Caco-2 cells that were cultured until TEER of the Transwell reached 400 to 500 Ω·cm^2 were cultured for two hours after exchanging the 10% FBS-containing DMEM medium for a calcium-free colorless HESS medium (GIBCO). Subsequently, a calcium-containing colorless HESS medium (GIBCO) to which an oligosaccharide containing 1-kestose, sucrose, or nystose was added at a concentration of 1 wt. % was added to the upper layer. At the same time, Lucifer Yellow (MP Biomedical LLC.) was added to the upper layer at a concentration of […] as a substance passing between the cells. After culturing for three hours, the HBSS medium in the lower layer was collected, and the residual concentration of Lucifer Yellow that had permeated from the upper layer to the lower layer was measured (1% kestose group, 1% sucrose group, and 1% nystose group, n=3). As the control group, a group of cells cultured only in a calcium-free HBSS medium (negative control group, n=3) and a group in which culture was performed for two hours in a calcium-free HBSS medium, and then the medium was only exchanged for a calcium-containing HBSS medium (positive control group, n=3) were prepared, and the amounts of substances that passed between the cells were compared.

[5] = Example 4, FIG. 4, 1-hour calcium (+)
[6] = Example 4, FIG. 5, 6-hour calcium (+)

| SMILES | TEER right before exchanging the medium for calcium-free DMEM, versus negative and positive control groups (Caco-2 cells [1]; [5]) | decrease in TEER after exchange for calcium-free DMEM and elimination of 1-kestose, versus negative control group (Caco-2 cells [1]; [5]) | TEER right before exchanging the medium for calcium-free DMEM, versus negative and positive control groups (Caco-2 cells [1]; [6]) | decrease in TEER after exchange for calcium-free DMEM and elimination of 1-kestose, versus negative control group (Caco-2 cells [1]; [6]) | recovery of TEER in comparison with the negative control group (Caco-2 cells [2]) | recovery-promoting effect on TEER in comparison with the positive control group (Caco-2 cells [2]) | promotion of TEER recovery compared to the 1% nystose group (Caco-2 cells [2]; Example 1, 1 wt. %) | recovery-promoting effect relative to the positive control group, on average (Caco-2 cells [2]; Example 1, 1 wt. %, 30 minutes after exchanging calcium-free for calcium-containing DMEM) [times] | effect of promoting recovery of TEER in comparison with the positive control group (Caco-2 cells [2]; Example 2, FIG. 2, calcium (+), 1 wt. %) | recovery of TEER (Caco-2 cells [2]; Example 2, FIG. 2, calcium (+), 1 wt. % in calcium-containing DMEM, up to 3 h) | recovery of TEER (Caco-2 cells [2]; Example 2, FIG. 2, calcium (−), 1 wt. % in calcium-free DMEM, up to 3 h) | recovery of TEER (Caco-2 cells [2]; Example 3, FIG. 3, 0.1 wt. % in calcium-containing DMEM, up to 3.5 h) | promotion of recovery of TEER, 1% group versus 0.1% group (Caco-2 cells [2]; Example 3, FIG. 3, 1 wt. % compared with 0.1 wt. %) | recovery of TEER (Caco-2 cells [2]; Example 3, FIG. 3, 1 wt. % in calcium-containing DMEM, up to 3.5 h) | average TEER ratio (to the initial measured value of TEER) (Caco-2 cells [3]; Example 6, FIG. 7, 1 wt. % for 24 h, then IL-1β 10 ng/mL in lower layer, measured 48 h later, n=3) | inhibition of the decrease of TEER (Caco-2 cells [3]; Example 6, 1 wt. %, IL-1β 10 ng/mL, 48 h) | residual concentration of Lucifer Yellow in the lower layer compared to the negative control group (Caco-2 cells [4]) | residual concentration of Lucifer Yellow in the lower layer compared to the positive control group (Caco-2 cells [4]; 1 wt. %) | residual concentration of Lucifer Yellow in the lower layer, rank among all groups (Caco-2 cells [4]; 1 wt. %) |
| --- | --- | --- | --- | --- | --- | --- | --- | --- | --- | --- | --- | --- | --- | --- | --- | --- | --- | --- | --- |
| OC[C@H]1O[C@@](CO)(OC[C@@]2(O[C@H]3O[C@H](CO)[C@@H](O)[C@H](O)[C@H]3O)O[C@H](CO)[C@@H](O)[C@@H]2O)[C@@H](O)[C@@H]1O [1-kestose] | significant increase in TEER | tendency that a decrease in TEER in the 1-hour calcium (+) 1% kestose group was inhibited | significant increase in TEER | tendency that a decrease in TEER in the 6-hour calcium (+) 1% kestose group was inhibited | significant recovery of TEER | significant recovery-promoting effect | tendency of stronger promotion of recovery | 2.4 | significant effect of promoting recovery of TEER | significant recovery of TEER | Recovery of TEER was hardly observed | significant recovery of TEER | tendency of stronger promotion of recovery of TEER | significant recovery of TEER | 0.849 | approximately 26% | significant reduction in the residual concentration | further reduced residual concentrations | lowest residual concentration |
| OC[C@H]1O[C@@](CO)(OC[C@@]2(OC[C@@]3(O[C@H]4O[C@H](CO)[C@@H](O)[C@H](O)[C@H]4O)O[C@H](CO)[C@@H](O)[C@@H]3O)O[C@H](CO)[C@@H](O)[C@@H]2O)[C@@H](O)[C@@H]1O [nystose] |  |  |  |  | significant recovery of TEER | significant recovery-promoting effect |  |  |  |  |  |  |  |  |  |  | significant reduction in the residual concentration | further reduced residual concentrations |  |
